Assay results: patent US8883512B1, “Method for diagnosing gestational diabetes, preeclampsia, and fetal growth restriction” (priority 2011, dated 2014)
“Also recorded” adds a separate entry of the source.

Tests used:
[1] = better designed (low bias) trials of antioxidant supplements; cited from earlier work
[2] = system: pregnant Sprague-Dawley rats; test: RAR-alpha antagonist Ro41-5253 in the STZ (75 mg/kg) model of gestational diabetes; assay type: in vivo, rat
Description: (§1) The specific aims of this second experiment were to test the hypothesis that complications associated with GDM could be ameliorated with the retinoic acid receptor-alpha (RAR-alpha) antagonist, Ro41-5253. On day 6 of gestation, Sprague-Dawley rats were randomly assigned to one of five groups: 1) saline-infused controls; 2) STZ, 75 mg/kg I.P.; 3) STZ, 50 mg/kg I.P.; 4) STZ, 75+Ro41-5253 (0.5 mg/kg I.P. daily for 10 d); or 5) STZ, 75+Ro41-5253 (1.0 mg/kg I.P. daily for 10 days). Ro41-5253 was provided as a gift from Roche. On day 19, after carotid artery catheters were implanted for measurement of arterial pressure, the animals were sacrificed, fetal and placental weights were determined, and blood samples were obtained to measure liver enzymes and glucose.

[3] = system: pregnant Sprague-Dawley rats; test: Streptozotocin (STZ) animal model of gestational diabetes and preeclampsia: blood glucose, liver enzymes, arterial pressure, fetal and placental weights; assay type: in vivo, rat
Description: Pregnant Sprague-Dawley rats on day 6 of gestation were randomly assigned to STZ at 75 mg/kg I.P. or saline-infusion. On day 19, carotid artery catheters were implanted for measurement of arterial pressure, after which the animals were sacrificed, fetal and placental weights determined and blood samples obtained to measure liver enzymes and glucose. Subsequently, using the same procedure, a separate group of pregnant rats (n=10/group) was randomly assigned to receive STZ at 75 mg/kg I.P. or saline infusion. Serum concentrations of retinol, retinoic acid, and retinyl esters were determined in these animals by HPLC on Day 20. Retinoid toxicity was defined as the percentage of retinyl esters >10%.
as §1

[4] = STZ 75 mg/kg, I.P. Ro41-5253, listed as retinoid receptor antagonist

CC1=C(/C=C/C(C)=C/C=C/C(C)=C/C=C/C=C(C)/C=C/C=C(C)/C=C/C2=C(C)CCCC2(C)C)C(C)(C)CCC1 [beta-carotene]
increased risk of mortality [1]: 7%

CCCCCCCOc1cc2c(cc1/C(C)=C/c1ccc(C(=O)O)cc1)C(C)(C)CCS2(=O)=O [Ro41-5253]
effect on blood glucose following STZ ([2]; Ro41-5253 0.5 mg/kg I.P. daily for 10 d, STZ 75 mg/kg): not by the lower dose; also recorded: no effect | effect on blood glucose following STZ ([2]; Ro41-5253 1.0 mg/kg I.P. daily for 10 days, STZ 75 mg/kg): reduced; also recorded: decrease of approximately one-third | reduction of alkaline phosphatase levels induced by STZ ([2]; STZ 75 mg/kg, FIG. 3): about 20% | effect on alanine aminotransferase (ALT) elevation following STZ ([2]; STZ 75 mg/kg, I.P. Ro41-5253): markedly reduced (almost to control levels) | effect on aspartate aminotransferase (AST) elevation following STZ ([2]; STZ 75 mg/kg, I.P. Ro41-5253): markedly reduced (almost to control levels) | effect on alkaline phosphatase (AP) levels induced by STZ ([2]; STZ 75 mg/kg, I.P. Ro41-5253, listed as RAR-alpha antagonist): increased alkaline phosphatase levels in all animals, with or without | effect on alanine aminotransferase (ALT) elevation following STZ [2, 4]: markedly reduced | effect on aspartate aminotransferase (AST) elevation following STZ [2, 4]: markedly reduced | placental weights ([2]; STZ model, day 19): unaffected | effect on trend towards increased arterial pressure ([2]; higher dose of STZ, doses investigated): did not appear to be ameliorated

vitamin E
increased risk of mortality [1]: 4%

CN(N=O)C(=O)N[C@H]1C(O)O[C@H](CO)[C@@H](O)[C@@H]1O (mixture of isomers) [STZ, streptozotocin]
blood glucose levels (mean) ([3]; STZ 75 mg/kg I.P. on gestation day 6, blood on day 19, saline controls 104): 533 mg/dL | pup weights (mean) ([3]; STZ 75 mg/kg I.P., controls 4.6): 1.4 g | alanine aminotransferase (mean) ([3]; STZ 75 mg/kg I.P., controls 63): 326 U/L | alkaline phosphatase (mean) ([3]; STZ 75 mg/kg I.P., controls 123): 576 U/L | asparate aminotransferase levels (mean) ([3]; STZ 75 mg/kg I.P., controls 152): 842 U/L | placental weights ([3]; STZ, day 19): unaffected | fetus size versus controls ([3]; groups receiving 75 mg/kg of STZ alone): smaller than controls | arterial pressure ([3]; groups receiving both doses of STZ, P=0.1386): non-significant trend towards increased levels

vitamin A
increased risk of mortality [1]: 16%
